US20220289732A1, “HETEROCYCLIC WDR5 INHIBITORS AS ANTI-CANCER COMPOUNDS” (NOVARTIS AG, priority 2019, published 2022)
Read-outs that look alike come from different tables or passages of the source.

Experiments:
WDR5 = WDR5 (Homo sapiens, UniProt P61964); assay: WDR5 HTRF binding assay; settings: read-out: (a) WDR5 HTRF Pep Val v.1[Inhibitor/IC50]Qualified AC50
Summary of the method: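 6 nM WDR5 and 20 nM biotin-MLL1 WIN peptide (3762-3773) were incubated with compound (12-point, 3-fold dilutions) in pH 7.5 Hepes/NaCl/DTT buffer for 20 min at rt. Streptavidin-APC plus anti-His-Eu were then added for 1 hr, with HTRF read at 665/615. IC50 was fit from control-normalized activity; the counter assay used 15 nM biotin-PEG-His peptide.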

[1] = target: wild type MLL1 four-member complex (MLL1-4C) (Homo sapiens, UniProt P61964); assay: MLL1 LC-MS assay (SAH production); format: biochemical; settings: read-out: (b) MLL LCMS Peptide Val.v.1 Qualified AC50
Summary of the method: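 MLL1-4C (30 nM final) was preincubated 20 min with compound (3-fold dilutions, 8 or 12 points) and SAM in Tris-HCl pH 8.0 buffer. H3K4me0 peptide (histone H3[1-21]-biotin) was then added, giving final 2.5 μM SAM and 10 μM substrate, and reactions ran 120 min at rt. After TFA/d4-SAH quench, SAH was quantified by LC-MS/MS and IC50 fitted from control-normalised activity.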

MV4-11 cells = assay: MV4-11 6-day cell growth CTG (CellTiter-Glo) assay; format: cell-based; settings: 6 days, read-out: (c) MLL/WDR5 cell proliferation assay//MLL/WDR5 proliferation MV4:11 Qualified AC50
Summary of the method: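 Exponentially growing MV4-11 AML cells (RPMI 1640, 10% FBS) seeded at 300 cells/well with 12-point 1:3 compound dilutions, top final concentration 50 μM. Viability read by CellTiter-Glo luminescence after 6 days at 37° C; % inhibition vs DMSO-only wells fitted to dose-response for IC50.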

Compound	IC50 (WDR5) [µM]	AC50 [1] [µM]	AC50 (MV4-11 cells; Homo sapiens, MV4-11, 144 h) [µM]	AC50 (MV4-11 cells) [µM]
CCOc1cc(C(C)N2CCc3c(cc(CCN(C)CC)cc3-c3cc(Cl)cnc3C)C2=O)ncc1C#N (stereo not drawn) [Example 197, 6-(1-(5-(5-chloro-2-methylpyridin-3-yl)-7-(2-(ethyl(methyl)amino)ethyl)-1-oxo-3,4-dihydroisoquinolin-2(1H)-yl)ethyl)-4-ethoxynicotinonitrile]	0.01 to 1	0.01 to 1	0.01 to 1	
CCOc1cc([C@H](C)N2CCc3c(cc(CCN(C)CC)cc3-c3cc(N)ncc3C(F)(F)F)C2=O)ncc1C#N [Example 202, (S)-6-(1-(5-(2-amino-5-(trifluoromethyl)pyridin-4-yl)-7-(2-(ethyl(methyl)amino)ethyl)-1-oxo-3,4-dihydroisoquinolin-2(1H)-yl)ethyl)-4-ethoxynicotinonitrile]	0.01 to 1	0.01 to 1	0.01 to 1	
CCOc1cc(C(C)N2CCc3c(cc(CCN(C)CC)cc3-c3cc(Cl)nnc3C)C2=O)ncc1C#N (stereo not drawn) [Example 203, 6-(1-(5-(6-chloro-3-methylpyridazin-4-yI)-7-(2-(ethyl(methyl)amino)ethyl)-1-oxo-3,4-dihydroisoquinolin-2(1H)-yl)ethyl)-4-ethoxynicotinonitrile]	0.01 to 1	0.01 to 1	0.01 to 1	
CCOc1cc(C(C)N2CCc3c(cc(CCN(C)CC)cc3-n3ccnc3)C2=O)ncc1C#N (stereo not drawn) [Example 208]	0.01 to 1	0.01 to 1	1 to 25	
CCOc1cc(C(C)N2CCc3c(cc(CCN(C)CC)cc3-c3cc(C)nnc3C)C2=O)ncc1C (stereo not drawn) [Example 211, 5-(3,6-dimethylpyridazin-4-yl)-2-(1-(4-ethoxy-5-methylpyridin-2-yl)ethyl)-7-(2-(ethyl(methyl)amino)ethyl)-3,4-dihydroisoquinolin-1(2H)-one]	< 0.01	0.01 to 1	0.01 to 1	
CCOc1cc([C@H](C)N2CCc3c(cc(CCN4C[C@@H](O)[C@H]4C)cc3-c3cn(C)nc3C(F)F)C2=O)ncc1C#N [Example 213, 6-((S)-1-(5-(3-(difluoromethyl)-1-methyl-1H-pyrazol-4-yl)-7-(2-((2R,3R)-3-hydroxy-2-methylazetidin-1-yl)ethyl)-1-oxo-3,4-dihydroisoquinolin-2(1H)-yl)ethyl)-4-ethoxynicotinonitrile]	< 0.01	0.01 to 1	0.01 to 1	
CCOc1cc([C@H](C)N2CCc3c(cc(CCN4C[C@@H](O)[C@H]4C)cc3-c3cc(N)cnc3C(F)(F)F)C2=O)ncc1C#N [Example 214]	< 0.01	0.01 to 1	0.01 to 1	
CCOc1cc([C@H](C)N2CCc3c(cc(CCN4C[C@@H](O)[C@H]4C)cc3-c3cn(C)c(=O)cc3Cl)C2=O)ncc1C#N [Example 215]	< 0.01	0.01 to 1	0.01 to 1	
CCOc1cc([C@H](C)N2CCc3c(cc(CCN4C[C@@H](O)[C@H]4C)cc3-c3ccc(F)nc3C)C2=O)ncc1C#N [Example 217]	< 0.01	0.01 to 1	0.01 to 1	
CCOc1cc([C@H](C)N2CCc3c(cc(CCN4C[C@@H](O)[C@H]4C)cc3-c3cc(C(F)F)cnc3C)C2=O)ncc1C#N [Example 218]	< 0.01	0.01 to 1	0.01 to 1	
CCOc1cc([C@H](C)N2CCc3c(cc(CCN4C[C@@H](O)[C@H]4C)cc3-c3cc(C)cnc3C)C2=O)ncc1C#N [Example 220]	< 0.01	0.01 to 1	0.01 to 1	
CCOc1cc([C@@H](C)N2CCc3c(cc(CCN4C[C@@H](O)[C@H]4C)cc3-c3cc(C)ncc3C)C2=O)ncc1C#N [Example 223]	0.01 to 1	0.01 to 1	0.01 to 1	

Second part, led by results:

IC50 (WDR5) [µM]	AC50 [1] [µM]	Compound	AC50 (MV4-11 cells; Homo sapiens, MV4-11, 144 h) [µM]	AC50 (MV4-11 cells) [µM]
0.01 to 1	0.01 to 1	CCOc1cc(CN2CCc3c(cc(CCN(C)CC)cc3-c3cn(C)c(=O)cc3C(F)(F)F)C2=O)ncc1C#N [Example 196, 4-ethoxy-6-((7-(2-(ethyl(methyl)amino)ethyl)-5-(1-methyl-6-oxo-4-(trifluoromethyl)-1,6-dihydropyridin-3-yl)-1-oxo-3,4-dihydroisoquinolin-2(1H)-yl)methyl)nicotinonitrile]	0.01 to 1	
0.01 to 1	0.01 to 1	CCOc1cc([C@H](C)N2CCc3c(cc(CCN(C)CC)cc3-c3ccc(N)nc3C(F)(F)F)C2=O)ncc1C#N [Example 198, (S)-6-(1-(5-(6-amino-2-(trifluoromethyl)pyridin-3-yl)-7-(2-(ethyl(methyl)amino)ethyl)-1-oxo-3,4-dihydroisoquinolin-2(1H)-yl)ethyl)-4-ethoxynicotinonitrile]	< 0.01	
0.01 to 1	0.01 to 1	CCOc1cc([C@@H](C)N2CCc3c(cc(CCN(C)CC)cc3-c3ccc(N)nc3C(F)(F)F)C2=O)ncc1C#N [Example 199, (R)-6-(1-(5-(6-amino-2-(trifluoromethyl)pyridin-3-yl)-7-(2-(ethyl(methyl)amino)ethyl)-1-oxo-3,4-dihydroisoquinolin-2(1H)-yl)ethyl)-4-ethoxynicotinonitrile]	0.01 to 1	
0.01 to 1	0.01 to 1	CCOc1cc(C(C)N2CCc3c(cc(CCN(C)CC)cc3-c3ccc(N)nc3C(F)F)C2=O)ncc1C#N (stereo not drawn) [Example 200, 6-(1-(5-(6-amino-2-(difluoromethyl)pyridin-3-yl)-7-(2-(ethyl(methyl)amino)ethyl)-1-oxo-3,4-dihydroisoquinolin-2(1H)-yl)ethyl)-4-ethoxynicotinonitrile]	0.01 to 1	
0.01 to 1	0.01 to 1	CCOc1cc(CN2CCc3c(cc(CCN(C)CC)cc3-c3cc(N)cnc3C)C2=O)ncc1C#N [Example 201, 6-((5-(5-amino-2-methylpyridin-3-yl)-7-(2-(ethyl(methyl)amino)ethyl)-1-oxo-3,4-dihydroisoquinolin-2(1H)-yl)methyl)-4-ethoxynicotinonitrile]	0.01 to 1	
0.01 to 1	0.01 to 1	CCOc1cc([C@H](C)N2CCc3c(cc(CCN(C)CC)cc3-c3cn(C)c(=O)cc3C(F)(F)F)C2=O)ncc1F [Example 204, (S)-2-(1-(4-ethoxy-5-fluompyridin-2-yl)ethyl)-7-(2-(ethyl(methyl)amino)ethyl)-5-(1-methyl-6-oxo-4-(trifluoromethyl)-1,6-dihydropyridin-3-yl)-3,4-dihydroisoquinolin-1(2H)-one]		0.01 to 1
0.01 to 1	0.01 to 1	CCOc1cc(C(C)N2CCc3c(cc(CCN(C)CC)cc3-c3cc(C)nn3C)C2=O)ncc1C#N (stereo not drawn) [Example 205, 6-(1-(5-(1,3-dimethyl-1H-pyrazol-5-yl)-7-(2-(ethyl(methyl)amino)ethyl)-1-oxo-3,4-dihydroisoquinolin-2(1H)-yl)ethyl)-4-ethoxynicotinonitrile]	0.01 to 1	
0.01 to 1	0.01 to 1	CCOc1cc(C(C)N2CCc3c(cc(CCN(C)CC)cc3-c3cc4[nH]cnc4nc3C)C2=O)ncc1C#N (stereo not drawn) [Example 206, 4-ethoxy-6-(1-(7-(2-(ethyl(methyl)amino)ethyl)-5-(5-methyl-1H-imidazo[4,5-b]pyridin-6-yl)-1-oxo-3,4-dihydroisoquinolin-2(1H)-yl)ethyl)nicotinonitrile]	0.01 to 1	
0.01 to 1	0.01 to 1	CCOc1cc(C(C)N2CCc3c(cc(CCN(C)CC)cc3N3CCCC3)C2=O)ncc1C#N (stereo not drawn) [Example 207, 4-ethoxy-6-(1-(7-(2-(ethyl(methyl)amino)ethyl)-1-oxo-5-(pyrrolidin-1-yl)-3,4-dihydroisoquinolin-2(1H)-yl)ethyl)nicotinonitrile]	1 to 25	
0.01 to 1	0.01 to 1	CCOc1cc([C@H](C)N2CCc3c(cc(CCN(C)CC)cc3N3CC[C@H](O)C3)C2=O)ncc1C#N [Example 210]	1 to 25	
< 0.01	0.01 to 1	CCOc1cc(CN2CCc3c(cc(CCN(C)CC)cc3-c3cc(C)nnc3C)C2=O)ncc1C [Example 212, 5-(3,6-dimethylpyridazin-4-yl)-2-((4-ethoxy-5-methylpyridin-2-yl)methyl)-7-(2-(ethyl(methyl)amino)ethyl)-3,4-dihydroisoquinolin-1(2H)-one]	0.01 to 1	
< 0.01	0.01 to 1	CCOc1cc([C@H](C)N2CCc3c(cc(CCN4C[C@@H](O)[C@H]4C)cc3-c3cn(C)c(=O)cc3C)C2=O)ncc1C#N [Example 216]	0.01 to 1	
< 0.01	0.01 to 1	CCOc1cc([C@H](C)N2CCc3c(cc(CCN4C[C@@H](O)[C@H]4C)cc3-c3ccc(N)nc3C)C2=O)ncc1C#N [Example 219]	0.01 to 1	
< 0.01	0.01 to 1	CCOc1cc([C@H](C)N2CCc3c(cc(CCN4C[C@@H](O)[C@H]4C)cc3-c3cc(C)ncc3C)C2=O)ncc1C#N [Example 221]	0.01 to 1	
0.01 to 1	0.01 to 1	CCOc1cc(CN2CCc3c(cc(CCN4C[C@@H](O)[C@H]4C)cc3-c3ccc(F)nc3C)C2=O)ncc1C#N [Example 222]	0.01 to 1	
